Measurements reported in PubChem BioAssay (NCI).
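Compound exposure: 48 hours, 5 concentrations, 96-well plates. Here, GI50 denotes the concentration required for 50% inhibition of growth. At the TGI there is no net growth.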

What was measured:
Assay in all cases: growth of human tumour cells (NCI), 48 h
786-0 renal = test system: 786-0 renal
A498 renal = test system: A498 renal
A549 NSCLC = test system: A549 NSCLC
ACHN renal = test system: ACHN renal
BT-549 breast = test system: BT-549 breast
CCRF-CEM leukemia = test system: CCRF-CEM leukemia
COLO 205 colon = test system: COLO 205 colon
DU-145 prostate = test system: DU-145 prostate
EKVX NSCLC = test system: EKVX NSCLC
HCC-2998 colon = test system: HCC-2998 colon
HCT-116 colon = test system: HCT-116 colon
HCT-15 colon = test system: HCT-15 colon
HL-60(TB) leukemia = test system: HL-60(TB) leukemia
HOP-62 NSCLC = test system: HOP-62 NSCLC
HOP-92 NSCLC = test system: HOP-92 NSCLC
HS 578T breast = test system: HS 578T breast
HT29 colon = test system: HT29 colon
IGROV1 ovarian = test system: IGROV1 ovarian
K-562 leukemia = test system: K-562 leukemia
KM12 colon = test system: KM12 colon
LOX IMVI melanoma = test system: LOX IMVI melanoma
M14 melanoma = test system: M14 melanoma
MALME-3M melanoma = test system: MALME-3M melanoma
MCF7 breast = test system: MCF7 breast
MDA-MB-231 breast = test system: MDA-MB-231 breast
MDA-MB-435 = test system: MDA-MB-435
MOLT-4 leukemia = test system: MOLT-4 leukemia
NCI-H226 lung = test system: NCI-H226 lung
NCI-H23 lung = test system: NCI-H23 lung
NCI-H460 lung = test system: NCI-H460 lung
NCI-H522 lung = test system: NCI-H522 lung
NCI/ADR-RES ovarian = test system: NCI/ADR-RES ovarian
OVCAR-4 ovarian = test system: OVCAR-4 ovarian
OVCAR-5 ovarian = test system: OVCAR-5 ovarian
OVCAR-8 ovarian = test system: OVCAR-8 ovarian
PC-3 prostate = test system: PC-3 prostate
RPMI-8226 leukemia = test system: RPMI-8226 leukemia
RXF 393 renal = test system: RXF 393 renal
SF-268 CNS = test system: SF-268 CNS
SF-295 CNS = test system: SF-295 CNS
SF-539 CNS = test system: SF-539 CNS
SK-MEL-2 melanoma = test system: SK-MEL-2 melanoma
SK-MEL-28 melanoma = test system: SK-MEL-28 melanoma
SK-MEL-5 melanoma = test system: SK-MEL-5 melanoma
SK-OV-3 ovarian = test system: SK-OV-3 ovarian
SN12C renal = test system: SN12C renal
SNB-19 CNS = test system: SNB-19 CNS
SNB-75 CNS = test system: SNB-75 CNS
SR leukemia = test system: SR leukemia
SW-620 colon = test system: SW-620 colon
T-47D breast = test system: T-47D breast
TK-10 renal = test system: TK-10 renal
U251 CNS = test system: U251 CNS
UACC-257 melanoma = test system: UACC-257 melanoma
UACC-62 melanoma = test system: UACC-62 melanoma
UO-31 renal = test system: UO-31 renal

**Q.** With O=C(O)/C=C(\c1nc2ccc([N+](=O)[O-])cc2[nH]1)c1cc(Cl)ccc1O as the molecule, how does the GI50 (786-0 renal) read?
**A.** 3.77 µM

**Q.** And the TGI (786-0 renal)?
**A.** 28.3 µM

**Q.** And the GI50 (A498 renal)?
**A.** 2.46 µM

**Q.** What about the TGI (A498 renal) of the same molecule?
**A.** 8.7 µM

**Q.** And the GI50 (A549 NSCLC)?
**A.** 3.07 µM

**Q.** And the TGI (A549 NSCLC)?
**A.** 14.1 µM

**Q.** And the GI50 (ACHN renal)?
**A.** 2.38 µM

**Q.** What about the TGI (ACHN renal) of the same molecule?
**A.** 10.6 µM

**Q.** What about the GI50 (BT-549 breast) of the same molecule?
**A.** 2.3 µM

**Q.** And the TGI (BT-549 breast)?
**A.** 7.25 µM

**Q.** And the GI50 (CCRF-CEM leukemia)?
**A.** 2.51 µM

**Q.** What about the TGI (CCRF-CEM leukemia) of the same molecule?
**A.** 12.7 µM

**Q.** And the GI50 (COLO 205 colon)?
**A.** 2.87 µM

**Q.** What about the TGI (COLO 205 colon) of the same molecule?
**A.** 11.2 µM

**Q.** What about the GI50 (DU-145 prostate) of the same molecule?
**A.** 4.12 µM

**Q.** And the TGI (DU-145 prostate)?
**A.** > 100 µM

**Q.** What about the GI50 (EKVX NSCLC) of the same molecule?
**A.** 2.44 µM

**Q.** And the TGI (EKVX NSCLC)?
**A.** 28.2 µM

**Q.** And the GI50 (HCC-2998 colon)?
**A.** 4.13 µM

**Q.** What about the TGI (HCC-2998 colon) of the same molecule?
**A.** 29.4 µM

**Q.** What about the GI50 (HCT-116 colon) of the same molecule?
**A.** 2.35 µM

**Q.** And the TGI (HCT-116 colon)?
**A.** 7.03 µM

**Q.** What about the GI50 (HCT-15 colon) of the same molecule?
**A.** 2.9 µM

**Q.** And the TGI (HCT-15 colon)?
**A.** 20.3 µM

**Q.** And the GI50 (HL-60(TB) leukemia)?
**A.** 2.42 µM

**Q.** And the TGI (HL-60(TB) leukemia)?
**A.** 30.4 µM

**Q.** What about the GI50 (HOP-62 NSCLC) of the same molecule?
**A.** 3.55 µM

**Q.** And the TGI (HOP-62 NSCLC)?
**A.** 28.3 µM

**Q.** What about the GI50 (HOP-92 NSCLC) of the same molecule?
**A.** 0.711 µM

**Q.** What about the TGI (HOP-92 NSCLC) of the same molecule?
**A.** 5.35 µM

**Q.** And the GI50 (HS 578T breast)?
**A.** 4.97 µM

**Q.** What about the TGI (HS 578T breast) of the same molecule?
**A.** > 100 µM

**Q.** And the GI50 (HT29 colon)?
**A.** 3.51 µM

**Q.** And the TGI (HT29 colon)?
**A.** 14.4 µM

**Q.** And the GI50 (IGROV1 ovarian)?
**A.** 2.92 µM

**Q.** What about the TGI (IGROV1 ovarian) of the same molecule?
**A.** 39.5 µM

**Q.** And the GI50 (K-562 leukemia)?
**A.** 2.8 µM

**Q.** What about the TGI (K-562 leukemia) of the same molecule?
**A.** 16.6 µM

**Q.** And the GI50 (KM12 colon)?
**A.** 2.84 µM

**Q.** What about the TGI (KM12 colon) of the same molecule?
**A.** 17.7 µM

**Q.** And the GI50 (LOX IMVI melanoma)?
**A.** 2.41 µM

**Q.** What about the TGI (LOX IMVI melanoma) of the same molecule?
**A.** 11.1 µM

**Q.** What about the GI50 (M14 melanoma) of the same molecule?
**A.** 2.78 µM

**Q.** And the TGI (M14 melanoma)?
**A.** 12 µM

**Q.** What about the GI50 (MALME-3M melanoma) of the same molecule?
**A.** 1.96 µM

**Q.** What about the TGI (MALME-3M melanoma) of the same molecule?
**A.** 7.52 µM

**Q.** And the GI50 (MCF7 breast)?
**A.** 2.36 µM

**Q.** And the TGI (MCF7 breast)?
**A.** 16.6 µM

**Q.** And the GI50 (MDA-MB-231 breast)?
**A.** 2.11 µM

**Q.** What about the TGI (MDA-MB-231 breast) of the same molecule?
**A.** 9.25 µM

**Q.** What about the GI50 (MDA-MB-435) of the same molecule?
**A.** 2.84 µM

**Q.** And the TGI (MDA-MB-435)?
**A.** 34.5 µM

**Q.** What about the GI50 (MOLT-4 leukemia) of the same molecule?
**A.** 2.26 µM

**Q.** And the TGI (MOLT-4 leukemia)?
**A.** 9.7 µM

**Q.** And the GI50 (NCI-H226 lung)?
**A.** 2.32 µM

**Q.** And the TGI (NCI-H226 lung)?
**A.** 46.4 µM

**Q.** And the GI50 (NCI-H23 lung)?
**A.** 1.96 µM

**Q.** And the TGI (NCI-H23 lung)?
**A.** 19.6 µM

**Q.** And the GI50 (NCI-H460 lung)?
**A.** 3.03 µM

**Q.** What about the TGI (NCI-H460 lung) of the same molecule?
**A.** 17.9 µM

**Q.** What about the GI50 (NCI-H522 lung) of the same molecule?
**A.** 1.17 µM

**Q.** And the TGI (NCI-H522 lung)?
**A.** 5.03 µM

**Q.** And the GI50 (NCI/ADR-RES ovarian)?
**A.** 2.71 µM

**Q.** And the TGI (NCI/ADR-RES ovarian)?
**A.** > 100 µM

**Q.** And the GI50 (OVCAR-4 ovarian)?
**A.** 2.72 µM

**Q.** What about the TGI (OVCAR-4 ovarian) of the same molecule?
**A.** 36.6 µM

**Q.** And the GI50 (OVCAR-5 ovarian)?
**A.** 5.29 µM

**Q.** And the TGI (OVCAR-5 ovarian)?
**A.** 43.3 µM

**Q.** And the GI50 (OVCAR-8 ovarian)?
**A.** 3.28 µM

**Q.** What about the TGI (OVCAR-8 ovarian) of the same molecule?
**A.** > 100 µM

**Q.** And the GI50 (PC-3 prostate)?
**A.** 2.25 µM

**Q.** And the TGI (PC-3 prostate)?
**A.** > 100 µM

**Q.** And the GI50 (RPMI-8226 leukemia)?
**A.** 1.45 µM

**Q.** And the TGI (RPMI-8226 leukemia)?
**A.** 37.7 µM

**Q.** And the GI50 (RXF 393 renal)?
**A.** 3.55 µM

**Q.** And the TGI (RXF 393 renal)?
**A.** 21.2 µM

**Q.** What about the GI50 (SF-268 CNS) of the same molecule?
**A.** 3.62 µM

**Q.** And the TGI (SF-268 CNS)?
**A.** 28.3 µM

**Q.** What about the GI50 (SF-295 CNS) of the same molecule?
**A.** 3.43 µM

**Q.** And the TGI (SF-295 CNS)?
**A.** 20.1 µM

**Q.** What about the GI50 (SF-539 CNS) of the same molecule?
**A.** 3.1 µM

**Q.** And the TGI (SF-539 CNS)?
**A.** 17.8 µM

**Q.** And the GI50 (SK-MEL-2 melanoma)?
**A.** 2.4 µM

**Q.** And the TGI (SK-MEL-2 melanoma)?
**A.** 7.59 µM

**Q.** And the GI50 (SK-MEL-28 melanoma)?
**A.** 2.66 µM

**Q.** And the TGI (SK-MEL-28 melanoma)?
**A.** 14.4 µM

**Q.** And the GI50 (SK-MEL-5 melanoma)?
**A.** 1.1 µM

**Q.** What about the TGI (SK-MEL-5 melanoma) of the same molecule?
**A.** 4.06 µM

**Q.** What about the GI50 (SK-OV-3 ovarian) of the same molecule?
**A.** 2.44 µM

**Q.** What about the TGI (SK-OV-3 ovarian) of the same molecule?
**A.** 11.8 µM

**Q.** What about the GI50 (SN12C renal) of the same molecule?
**A.** 2.71 µM

**Q.** What about the TGI (SN12C renal) of the same molecule?
**A.** 33.8 µM

**Q.** And the GI50 (SNB-19 CNS)?
**A.** 3.5 µM

**Q.** And the TGI (SNB-19 CNS)?
**A.** > 100 µM

**Q.** And the GI50 (SNB-75 CNS)?
**A.** 3.14 µM

**Q.** What about the TGI (SNB-75 CNS) of the same molecule?
**A.** 27.6 µM

**Q.** What about the GI50 (SR leukemia) of the same molecule?
**A.** 3.23 µM

**Q.** And the TGI (SR leukemia)?
**A.** 18.5 µM

**Q.** And the GI50 (SW-620 colon)?
**A.** 3.66 µM

**Q.** And the TGI (SW-620 colon)?
**A.** 17.6 µM

**Q.** And the GI50 (T-47D breast)?
**A.** 2.3 µM

**Q.** And the TGI (T-47D breast)?
**A.** 9.38 µM

**Q.** And the GI50 (TK-10 renal)?
**A.** 4.11 µM

**Q.** And the TGI (TK-10 renal)?
**A.** 15.4 µM

**Q.** And the GI50 (U251 CNS)?
**A.** 3.21 µM

**Q.** What about the TGI (U251 CNS) of the same molecule?
**A.** 19.2 µM

**Q.** What about the GI50 (UACC-257 melanoma) of the same molecule?
**A.** 2.37 µM

**Q.** What about the TGI (UACC-257 melanoma) of the same molecule?
**A.** 7.15 µM

**Q.** And the GI50 (UACC-62 melanoma)?
**A.** 1.45 µM

**Q.** And the TGI (UACC-62 melanoma)?
**A.** 5.41 µM

**Q.** And the GI50 (UO-31 renal)?
**A.** 1.54 µM

**Q.** What about the TGI (UO-31 renal) of the same molecule?
**A.** 9.01 µM
